Data from EP0973746B1, “SUBSTITUTED 3-CYANO QUINOLINES” (Wyeth Holdings Corporation, priority 1997, dated 1998).
≈ marks a conversion by molar mass, not a printed value. Like-named read-outs stand apart in the source and are kept apart here.

Tests used:
[1] = tested on: CCL228; assay: Inhibition of cancer cell growth as measured by cell number, CCL228; assay type: cell-based; settings: Homo sapiens, 48 h, read-out: IC50 CCL228
[2] = tested on: MCF7; assay: Inhibition of cancer cell growth as measured by cell number, MCF7; assay type: cell-based, human; settings: Homo sapiens, MCF7, 48 h, read-out: IC50 MCF7, cell number, Sulforhodamine B, 48 hours exposure;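 also: MCF7 was included as a line with little or no EGFR or HER2/neu expression, in contrast to the receptor-overexpressing lines of the panel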
From the text: (§1) The cell lines were chosen since they overexpressed epidermal growth factor receptor (EGFR) (i.e. A431) or HER2/neu (SKBR3), or had little to no expression of the these receptors (SW620, LOX, MCF7).

[3] = tested on: B7474; assay: Inhibition of cancer cell growth as measured by cell number, B7474; assay type: cell-based; settings: Homo sapiens, 48 h, read-out: IC50 B7474
[4] = tested on: SKBR3; assay: Inhibition of cancer cell growth as measured by cell number, SKBR3; assay type: cell-based, human; settings: Homo sapiens, SK-BR-3, 48 h, read-out: IC50 SKBR3, cell number, Sulforhodamine B, 48 hours exposure;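 also: SK-BR-3 cells were selected as a line overexpressing HER2/neu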
From the text: as §1

[5] = tested on: HTB161; assay: Inhibition of cancer cell growth as measured by cell number, HTB161; assay type: cell-based; settings: Homo sapiens, 48 h, read-out: IC50 HTB161
[6] = target: epidermal growth factor receptor kinase (Homo sapiens, UniProt P00533); assay: biochemical
Method: The enzyme was obtained as a membrane extract of A431 cells (American Type Culture Collection, Rockville, MD). A431 cells were grown in T175 flasks to 80% confluency. The cells were washed twice with phosphate buffered saline (PBS) without Ca^2+. Flasks were rotated for 1.5 hours in 20 ml PBS with 1.0 mM ethylenediaminetetraacetic acid (EDTA) at room temperature and centrifuged at 600g for 10 minutes. The cells were solubilized in 1 ml per 5 x 10^6 cells of cold lysis buffer {10mM 4-(2-hydroxyethyl)-1-piperazineethane-sulfonic acid (HEPES), pH 7.6, 10 mM NaCl, 2mM EDTA, 1mM phenylmethyl-sulfonyl-fluoride (PMSF), 10 mg/ml aprotinin, 10 mg/ml leupeptin, 0.1 mM sodium orthovanadate} in a Dounce homogenizer with 10 strokes on ice. The lysate was centrifuged at 600g for 10 minutes first to clear cell debris and the supernatant further centrifuged at 100,000 g for 30 min at 4°C. The membrane pellet was suspended in 1.5 ml HNG buffer (50 mM HEPES, pH 7.6, 125 mM NaCl, 10% glycerol). The membrane extract was divided into aliquots, immediately frozen in liquid nitrogen and stored at -70°C.
Compounds to be evaluated were made into 10 mg/ml stock solutions in 100% dimethylsulfoxide (DMSO). Prior to experiment, stock solutions were diluted to 500 mM with buffer (30 mM Hepes pH 7.4) and then serially diluted to the desired concentration.
An aliquot of the A431 membrane extract (10 mg/ml) was diluted in 30 mM HEPES (pH 7.4) to give a protein concentration of 50 ug/ml. […] To this was added the ^33p-ATP (10 mCi/ml) diluted 1:10 in assay buffer along with the substrate peptide at a concentration of 0.5 mM (control reactions get no test compound) and the reaction was allowed to proceed for 30 min at 30°C. The reaction was stopped with 10% TCA and left on ice for at least 10 min after which tubes were microcentrifuged at full speed for 15 min. The a portion of the supernatants were spotted on P81 phosphocellulose discs and washed twice in 1% acetic acid then water for 5 min each followed by scintillation counting. […] The % inhibition of the test compound was determined for at least three different concentrations and the IC50 value was evaluated from the dose response curve. […] CPM(control) is in units of counts per minute and was a number expressing the amount of radiolabeled ATP (g-^33P) incorporated into the RR-SRC peptide substrate by the enzyme after 30 minutes at 30°C in the absence of test compound as measured by liquid scintillation counting. The CPM values were corrected for the background counts produced by ATP in the absence of the enzymatic reaction. The IC50 values reported in TABLE 1 are averages of the number of tests conducted.

[7] = tested on: A431; assay: Inhibition of cancer cell growth as measured by cell number, A431; assay type: cell-based, human; settings: Homo sapiens, A-431, 48 h, read-out: IC50 A431, cell number, Sulforhodamine B, 48 hours exposure;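 also: human A431 line, picked because it overexpresses epidermal growth factor receptor (EGFR)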
From the text: as §1

[8] = tested on: HCT15; assay: Inhibition of cancer cell growth as measured by cell number, HCT15; assay type: cell-based; settings: Homo sapiens, HCT-15, 48 h, read-out: IC50 HCT15
[9] = tested on: DU145; assay: Inhibition of cancer cell growth as measured by cell number, DU145; assay type: cell-based; settings: Homo sapiens, DU-145, 48 h, read-out: IC50 DU145
[10] = tested on: HL60; assay: Inhibition of cancer cell growth as measured by cell number, HL60; assay type: cell-based; settings: Homo sapiens, HL-60, 48 h, read-out: IC50 HL60
[11] = tested on: LOX; assay: Inhibition of cancer cell growth as measured by cell number, LOX; assay type: cell-based, human; settings: Homo sapiens, LOX, 48 h, read-out: IC50 LOX, cell number, Sulforhodamine B, 48 hours exposure;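 also: LOX cells served as a line with low or absent EGFR and HER2/neu expression, in contrast to receptor-overexpressing lines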
From the text: as §1

[12] = tested on: COLO205; assay: Inhibition of cancer cell growth as measured by cell number, COLO205; assay type: cell-based; settings: Homo sapiens, COLO 205, 48 h, read-out: IC50 COLO205
[13] = tested on: CACO2; assay: Inhibition of cancer cell growth as measured by cell number, CACO2; assay type: cell-based; settings: Homo sapiens, Caco-2, 48 h, read-out: IC50 CACO2
[14] = tested on: T47D; assay: Inhibition of cancer cell growth as measured by cell number, T47D; assay type: cell-based; settings: Homo sapiens, 48 h, read-out: IC50 T47D
[15] = tested on: PC3; assay: Inhibition of cancer cell growth as measured by cell number, PC3; assay type: cell-based; settings: Homo sapiens, PC-3, 48 h, read-out: IC50 PC3
[16] = tested on: LX1; assay: Inhibition of cancer cell growth as measured by cell number, LX1; assay type: cell-based; settings: Homo sapiens, LX-1, 48 h, read-out: IC50 LX1
[17] = tested on: SW948; assay: Inhibition of cancer cell growth as measured by cell number, SW948; assay type: cell-based; settings: Homo sapiens, SW948, 48 h, read-out: IC50 SW948
[18] = tested on: SW620; assay: Inhibition of cancer cell growth as measured by cell number, SW620; assay type: cell-based, human; settings: Homo sapiens, SW-620, 48 h, read-out: IC50 SW620, cell number, Sulforhodamine B, 48 hours exposure;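 also: SW620 was included as a cell line with little or no EGFR or HER2/neu expression, in contrast to receptor-overexpressing lines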
From the text: as §1

[19] = tested on: CX1; assay: Inhibition of cancer cell growth as measured by cell number, CX1; assay type: cell-based; settings: Homo sapiens, CX-1, 48 h, read-out: IC50 CX1
[20] = tested on: NEC; assay: Inhibition of cancer cell growth as measured by cell number, NEC; assay type: cell-based; settings: Homo sapiens, 48 h, read-out: IC50 NEC
[21] = tested on: A27805; assay: Inhibition of cancer cell growth as measured by cell number, A27805; assay type: cell-based; settings: Homo sapiens, 48 h, read-out: IC50 A27805
[22] = tested on: LS174T; assay: Inhibition of cancer cell growth as measured by cell number, LS174T; assay type: cell-based; settings: Homo sapiens, 48 h, read-out: IC50 LS174T
[23] = tested on: A431; assay: Inhibition of cell growth by incorporation of [3H]-thymidine, A431; assay type: cell-based, human; settings: Homo sapiens, A-431, read-out: IC50 A431
[24] = tested on: A2780DDP; assay: Inhibition of cancer cell growth as measured by cell number, A2780DDP; assay type: cell-based; settings: Homo sapiens, 48 h, read-out: IC50 A2780DDP
[25] = tested on: CCRF-CFM; assay: Inhibition of cancer cell growth as measured by cell number, CCRF-CFM; assay type: cell-based; settings: Homo sapiens, 48 h, read-out: IC50 CCRF-CFM
[26] = target: recombinant human MEK 1 (MAPKK) and recombinant human ERK2 (MAPK); assay: Mitogen Activated Protein Kinase (MAPK) assay, two component coupled MEK 1 / ERK2; assay type: biochemical; settings: separate entries for the same compound = evaluated more than one time;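 also: MEK 1-activated ERK2 phosphorylates MBP or Myc peptide with 33P-ATP, filter capture and scintillation counting, inhibitor preincubated with ERK2 30 min at 0 °C, inhibition relative to uninhibited control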
[27] = tested on: LNCAP; assay: Inhibition of cancer cell growth as measured by cell number, LNCAP; assay type: cell-based; settings: Homo sapiens, 48 h, read-out: IC50 LNCAP
[28] = tested on: A549; assay: Inhibition of cancer cell growth as measured by cell number, A549; assay type: cell-based; settings: Homo sapiens, A549, 48 h, read-out: IC50 A549
[29] = tested on: MIP; assay: Inhibition of cancer cell growth as measured by cell number, MIP; assay type: cell-based; settings: Homo sapiens; cell number, Sulforhodamine B, 48 hours exposure; Table 4; read-out: IC50 MIP

epidermal growth factor receptor kinase, sequence (P00533 25-1210): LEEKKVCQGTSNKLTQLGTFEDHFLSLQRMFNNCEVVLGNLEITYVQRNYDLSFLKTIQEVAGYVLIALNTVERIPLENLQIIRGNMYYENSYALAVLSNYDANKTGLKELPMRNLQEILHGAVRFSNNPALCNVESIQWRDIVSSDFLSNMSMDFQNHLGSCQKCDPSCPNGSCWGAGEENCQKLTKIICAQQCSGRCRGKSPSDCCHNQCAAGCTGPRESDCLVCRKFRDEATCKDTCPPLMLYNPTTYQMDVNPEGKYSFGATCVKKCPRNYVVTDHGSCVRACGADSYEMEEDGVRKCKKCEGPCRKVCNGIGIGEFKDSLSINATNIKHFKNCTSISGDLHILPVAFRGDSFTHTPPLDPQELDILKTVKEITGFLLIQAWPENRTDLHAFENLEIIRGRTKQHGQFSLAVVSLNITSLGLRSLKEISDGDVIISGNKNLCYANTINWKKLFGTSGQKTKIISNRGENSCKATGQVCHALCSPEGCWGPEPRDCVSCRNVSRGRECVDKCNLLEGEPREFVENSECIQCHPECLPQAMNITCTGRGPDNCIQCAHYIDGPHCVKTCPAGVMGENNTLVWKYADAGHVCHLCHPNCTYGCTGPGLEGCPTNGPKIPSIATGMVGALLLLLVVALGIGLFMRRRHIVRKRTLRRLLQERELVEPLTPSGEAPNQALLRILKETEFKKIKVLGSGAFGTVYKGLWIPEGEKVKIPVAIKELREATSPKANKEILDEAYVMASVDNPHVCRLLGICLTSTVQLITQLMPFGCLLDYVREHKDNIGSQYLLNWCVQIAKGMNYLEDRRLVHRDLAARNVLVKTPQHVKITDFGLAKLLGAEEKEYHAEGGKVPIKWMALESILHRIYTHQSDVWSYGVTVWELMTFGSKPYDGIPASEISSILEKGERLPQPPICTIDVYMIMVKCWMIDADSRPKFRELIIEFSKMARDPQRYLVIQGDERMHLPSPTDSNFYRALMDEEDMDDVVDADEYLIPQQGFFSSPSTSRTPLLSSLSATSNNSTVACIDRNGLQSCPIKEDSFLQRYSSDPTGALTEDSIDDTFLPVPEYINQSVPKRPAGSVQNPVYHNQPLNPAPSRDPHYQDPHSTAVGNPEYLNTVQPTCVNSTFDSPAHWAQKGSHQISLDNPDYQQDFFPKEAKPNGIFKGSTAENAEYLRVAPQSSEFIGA

| SMILES | IC50 [1] [µg/mL] | IC50 ([2]; Table 5) [µg/mL] | IC50 [3] [µg/mL] | IC50 ([4]; Table 7) [µg/mL] | IC50 [5] [µg/mL] | IC50 [6] [nM] | IC50 ([7]; Table 6) [µg/mL] | IC50 [8] [µg/mL] | IC50 [9] [µg/mL] | IC50 [10] [µg/mL] | IC50 ([11]; Table 6) [µg/mL] | IC50 [12] [µg/mL] | IC50 [13] [µg/mL] | IC50 [14] [µg/mL] | IC50 [15] [µg/mL] | IC50 [16] [µg/mL] | IC50 [17] [µg/mL] | IC50 ([18]; Table 4) [µg/mL] | IC50 [19] [µg/mL] | IC50 [20] [µg/mL] | further results |
| --- | --- | --- | --- | --- | --- | --- | --- | --- | --- | --- | --- | --- | --- | --- | --- | --- | --- | --- | --- | --- | --- |
| COc1cc2ncc(C#N)c(Nc3cccc(Cl)c3)c2cc1OC [Example 41, 4-[(3-Chlorophenyl)amino]-6,7-dimethoxy-3-quinolinecarbonitrile] | 18.5 (≈ 54.4 µM) | 24.8 (≈ 73.1 µM) | 6.26 (≈ 18.4 µM) | 20.6 (≈ 60.8 µM) | 7.87 (≈ 23.2 µM) | 200 | 0.813 (≈ 2.39 µM) | 4.21 (≈ 12.4 µM) | 0.913 (≈ 2.69 µM) | 3.23 (≈ 9.52 µM) | 0.961 (≈ 2.83 µM) | 6.13 (≈ 18 µM) | 2.11 (≈ 6.21 µM) | 8.5 (≈ 25 µM) | 17.5 (≈ 51.5 µM) | 48.7 (≈ 143 µM) | 14.1 (≈ 41.6 µM) | 14.7 (≈ 43.1 µM) | 7.25 (≈ 21.3 µM) | 8.46 (≈ 24.9 µM) | IC50 ([2]; Table 8): 6.86 µg/mL (≈ 20.2 µM); IC50 ([4]; Table 8): 0.48 µg/mL (≈ 1.41 µM); IC50 ([7]; Table 8): 0.24 µg/mL (≈ 0.706 µM); IC50 ([11]; Table 8): 1.33 µg/mL (≈ 3.91 µM); IC50 ([18]; Table 8): 2.23 µg/mL (≈ 6.56 µM); IC50 [21]: 7.73 µg/mL (≈ 22.7 µM); IC50 [22]: 2.92 µg/mL (≈ 8.61 µM); IC50 [23]: 1500 nM; IC50 [24]: 6.25 µg/mL (≈ 18.4 µM); IC50 [25]: 8.29 µg/mL (≈ 24.4 µM); IC50 [26]: 1400 nM; IC50 [27]: 3.53 µg/mL (≈ 10.4 µM); IC50 [28]: 25 µg/mL (≈ 73.5 µM); IC50 [29]: 4.09 µg/mL (≈ 12 µM) |
| COc1cc2ncc(C#N)c(Nc3cccc(C#N)c3)c2cc1OC [Example 45, 4-[(3-Cyanophenyl)amino]-6,7-dimethoxy-3-quinolinecarbonitrile] | > 100 | 57.8 (≈ 175 µM) | 86.8 (≈ 263 µM) | 60.5 (≈ 183 µM) | 4.21 (≈ 12.8 µM) | 1670 | 2.61 (≈ 7.9 µM) | 79.7 (≈ 241 µM) | 8.94 (≈ 27.1 µM) | > 100 | 9.06 (≈ 27.4 µM) | > 100 | 0.911 (≈ 2.76 µM) | 30 (≈ 90.9 µM) | 88.9 (≈ 269 µM) | 100 (≈ 303 µM) | > 100 | > 100 | 89.7 (≈ 271 µM) | 72.1 (≈ 218 µM) | IC50 [21]: 8.66 µg/mL (≈ 26.2 µM); IC50 [22]: 87.1 µg/mL (≈ 264 µM); IC50 [23]: 150 nM; IC50 [24]: 39.3 µg/mL (≈ 119 µM); IC50 [25]: > 100 µg/mL; IC50 [26]: > 100000 nM; IC50 [27]: 57.8 µg/mL (≈ 175 µM); IC50 [28]: 100 µg/mL (≈ 303 µM); IC50 [29]: > 100 µg/mL |
